Data reported in patent US11034702B2, “Thienoisoquinolines and their derivatives for the treatment of cancer” (VALORBEC, SOCIÉTÉ EN COMMANDITE, priority 2016, dated 2021).

Columns and labels:
[1] = test system: HFF1 (fibroblast) non-cancer cells; assay: IC50 (viability) in HFF1 non-cancer cells; format: cell-based; settings: Homo sapiens; HFF-1 non-cancer cells
Protocol: 19 variants with different structural modifications have been made. […] In particular, it is shown that C75 causes death in multiple cancer cells with IC50 values in the 100 nM range, including breast cancers (MCF7, BT549), lung cancer (A549), colorectal cancer (HCT116) in addition to HeLa cells (cervical cancer).

[2] = test system: HCT116 cells; assay: Mitotic spindle phenotype and centrosome fragment distance in HCT116 cells; format: cell-based
Protocol: FIG. 2A) is a line graph showing the percentage of HCT116 (p53−/−) cells, A549 cells, HeLa cells and H1299 cells in mitosis after treatment with various concentrations of C75 for one population doubling time. All of the cell lines show an increase in the proportion of mitotic cells after treatment with 200 nM C75. The bars indicate standard deviation. […] While the mitotic spindles were not dramatically altered by C75 in HFF1 cells, they were monopolar (as shown) or fragmented in the other cell types. […] The mitotic spindles were more strongly fragmented after C75 treatment in these cells vs. the cells in FIG. 2B). […] While mitotic spindles recovered bipolarity after removing nocodazole, they remained multipolar after removing C75. FIG. 2F) is a series of time-lapse images of a live HeLa cell expressing GFP:tubulin after treatment with C75 as shown in 2D) and 2E). The scale bar for all cells is 10 μm. FIG. 2G) is a schematic showing the putative target for C75. Healthy cells have two centrosomes that separate and form a bipolar spindle, while cancer cells have aberrant centrosomes that cluster to form ‘pseudo’ bipolar spindles, and C75 may target this process and their integrity.
FIG. 3A) is a line graph showing the percentage of mitotic HeLa or HFF1 cells treated with a range of paclitaxel (Taxol™; tubulin-targeting drug) concentrations+/−C75 as indicated. The bars indicate standard deviation. FIG. 3B) is a series of bar graphs showing the proportion of HCT116 cells that have monopolar spindles, bipolar spindles with aligned chromosomes, bipolar spindles with misaligned chromosomes and multipolar/fragmented spindles after treatments as shown. Treatments include DMSO (control), varying concentrations of paclitaxel and/or varying concentrations of C75 after 7 hours. While treatment of HCT116 cells with 2.5 nM paclitaxel caused a threshold of mitotic spindle phenotypes, adding increasing concentrations of C75 in combination with 2.5 nM paclitaxel caused the phenotypes to progressively worsen. FIG. 3C) is bar graph showing the average distance between centrosome fragments in HCT116 cells after treatments as shown. While centrosome fragments moved closer together with increased concentrations of paclitaxel, they moved further apart with increased concentrations of C75. […] FIG. 3E) is a line graph showing the percentage of mitotic HeLa or HFF1 cells treated with a range of nocodazole concentrations+/−C75 as indicated. The bars indicate standard deviation. […]
C75 was also tested for efficacy in different cancer cell lines. […] To further assess the role of C75 in affecting centrosomes, HeLa cells were treated with C75 for a short period of time (5 minutes), then C75 was removed and the cells were analyzed for spindle phenotypes (schematic in FIG. 2D). […]

[3] = test system: HeLa spheroids; assay: HeLa multicellular tumour spheroids; format: cell-based, human
Protocol: FIG. 5A) is a series of images of HeLa multicellular tumor spheroids (spheroids) treated with control (500 nM C87), empty nanoparticles, 500 nM C75 and 250 nM C75-loaded nanoparticles over 3 days. […] The scale bar for all images is 100 μm. FIG. 5B) is a series images of HeLa spheroids after three days of treatment with control (500 nM C87) or 500 nM C75. The spheroids were stained for fluorescein diacetate (to detect live cells) and propidium iodide (to detect dead cells). […] The scale bar for all images is 100 μm. FIG. 5C) is a series of images of HCT116 spheroids treated with control (1 μM C87), 500 nM C75, 1 μM C75 and 500 nM C75-loaded nanoparticles over 5 days. […] The borders of the spheroids treated with 1 μM C75 or with 500 nM C75-loaded nanoparticles became highly irregular, indicative of loss of spheroid integrity. FIG. 5D) is a series images of HCT116 spheroids after six days of treatment with control (1 μM C87) or 1 μM C75. The spheroids were stained for fluorescein diacetate (live cells) and propidium iodide (dead cells). […] FIG. 5E) is a line graph showing the growth in surface area (%) of HCT116 spheroids treated with control (1 μM C87), 500 nM C75 and 1 μM C75 after six days. FIG. 5F) is a series of images of A549 spheroids treated with control (750 nM C87), 500 nM C75, 1 μM C75 and 500 nM C75-loaded nanoparticles over 5 days. […] The scale bar for all images is 100 μm. […]

**Q.** Which results are given for `COc1ccc(S(=O)(=O)N2Cc3ccccc3-c3sc(Br)cc32)cc1` [Compound C75]?
**A.** IC50 [1]: 467 nM; mitotic spindle phenotype ([2]; HCT116 (p53-/-), 300 nM, 6-8 hours): most of the spindles were severely fragmented; effect of C75 on phenotypes caused by paclitaxel ([2]; HCT116, 2.5 nM paclitaxel + increasing C75, 7 hours): enhances the phenotypes; change of centrosome fragment distance when paclitaxel was combined with C75 ([2]; HCT116, paclitaxel + C75): significant increase in fragment distance; effect on HeLa spheroids ([3]; 500 nM C75 or 250 nM C75-loaded nanoparticles, over 3 days): disrupt HeLa spheroids; live/dead staining of spheroids (fluorescein diacetate / propidium iodide) ([3]; HeLa spheroids, 500 nM, three days): majority of HeLa cells were dead
